The test system of data set [1] is PCNA positive vascular smooth muscle cells. Kind of data set: PCNA immunohistochemistry of carotid arteries after angioplasty. Type of data set: in vivo, rabbit. To be noted: neointimal layer, coated balloon-injured carotid artery (balloon-injured 2.8%±0.1%, control 0.2%±0.1%). An excerpt: The effects of ceramide treatment upon VSM cell growth in vivo were also investigated. Imunohistochemical techniques were employed to identify VSM using smooth muscle cell-specific actin antibody (FIGS. 4A-B) and cell growth using proliferating cell nuclear antigen (PCNA) antibody (FIGS. 4C-F). […] PCNA is synthesized in early G1 and S phases of the cell cycle, and thus can be used as a marker for cell proliferation. In FIGS. 4C-F, representative photomicrographs depicting PCNA positive staining are shown for control, balloon-injured, ceramide-treated and dihydroceramide-treated carotid arteries, respectively. […] C6-ceramide (0.6%±0.2%) but not dihydro-C6-ceramide (1.9%±0.3%) diminished the number of PCNA positive cells in the neointimal layer but not in the medial layer of the carotid artery.
Specifically, in FIG. 4, ceramide-treated catheters reduced PCNA expression in vascular smooth muscle cells after angioplasty. Smooth muscle actin expression was analyzed by immunohistochemistry utilizing a monoclonal anti-alpha smooth muscle antibody, and PCNA positive cell numbers were assessed with a primary mouse monoclonal IgG2a antibody for PCNA. […] These immunohistochemical micrographs are representative of four separate experiments. […]

Data set [2] relates to neointimal hyperplasia in rabbit carotid arteries. Kind of data set: Restenosis after balloon angioplasty with ceramide-coated embolectomy catheter balloon. Type of data set: in vivo, New Zealand white rabbits. The note with it: rabbit carotid artery, 2 weeks post balloon injury. An excerpt:
Experiments were designed to evaluate the therapeutic potential of ceramide-coated embolectomy catheters upon restenosis after balloon angioplasty. Initial studies assessed the extent of restenosis in rabbit carotid arteries after balloon angioplasty as a function of time. Animals were sacrificed 1, 2, 4 and 6 weeks after balloon injury. Marked neointimal hyperplasia was observed as early as 1 week and peaked at 4 weeks (FIG. 2A). […] FIGS. 2B-E illustrate hematoxylin and eosin stained cryostat sections of rabbit carotid arteries. […] Furthermore, it may be theorized that the effects of ceramide are due to biochemical actions and not lipophilic properties.
Initial experiments optimized the methods to induce restenosis after angioplasty in carotid arteries from New Zealand white rabbits. Twenty-one rabbits were divided into three experimental groups, undergoing either balloon angioplasty with a vehicle-treated catheter, a C6-ceramide-treated catheter or a dihydro-C6-ceramide-treated catheter. Each rabbit underwent identical procedures to denude the common carotid artery of endothelium and establish the cellular conditions to promote restenosis. The right common carotid served as the sham control while the left carotid served as the experimental side. […] FIG. 2A represents the time course of restenosis after angioplasty while FIGS. 2B-2E depict representative H/E stained sections. […] The scale for these photomicrographs is 200 microns. FIG. 2F quantifies the extent of restenotic lesions.

Data set [3] concerns restenotic lesions after balloon angioplasty. As to the kind of experiment: Restenosis after balloon angioplasty, ceramide delivered in solution by infusion-type catheter. It is filed as in vivo. An excerpt: It is noted that infusion-type catheters have the advantage to deliver ceramide in a BSA vehicle at a discrete dose to the site of arterial injury. It was thus determined whether ceramide delivered by solution using an infusion-type catheter is also effective in reducing restenosis as ceramide delivered using a catheter with a gel coated balloon tip. The balloon at the tip of a 4F arterial bilumen irrigation embolectomy catheter was inflated to a diameter equivalent to that of the earlier experiments. Three infusions of 10 μM C6-ceramide for 1 minute each reduced restenosis after balloon angioplasty by 39%. Dihydro-C6-ceramide at an equivalent dose had no effect upon restenotic lesions. These studies further support the novelty and efficacy of ceramide-coated balloon catheters as intra-arterial site-specific delivery devices.

For data set [4], the system named is primary VSM isolated from rabbit carotid arteries. As to the kind of experiment: Apoptosis by fluorescence-activated cell sorting after propidium iodide staining. The note with it: 100 nM. Type of data set: cell-based. The text has this: Ceramide treatment correlated with growth arrest at G0G1and not apoptosis in these smooth muscle-like pericytes. […] Thus, the therapeutic efficacy of cell-perneable ceramide in restenosis includes its ability to arrest VSM growth without inducing significant apoptosis.

The test system of the next data set is ERK2. Kind of data set: ERK2 phosphorylation in excised carotid arteries after angioplasty (Western blot). It is filed as in vivo. The note with it: ceramide-coated balloon angioplasty, rabbit carotid arteries. As to the method: (§1) Thus, to elucidate mechanisms by which ceramide prevents restenosis, the phosphorylation states of ERK2 and PKBα were investigated using freshly excised carotid arteries after angioplasty (FIG. 5). Phosphorylation of ERK2 and PKBα were increased at 15 minutes and 24 hours post-balloon injury. The sustained phosphorylation of these kinases most likely reflects continuous remodeling of damaged arteries. […] Thus, acute ceramide therapy may directly modulate kinases or regulate putative ceramide-activated protein phosphatases that down-regulate these signaling pathways.
(§2) Specifically, in FIG. 5, ERK2 and PKBα phosphorylation was diminished after ceramide-coated balloon angioplasty in rabbit carotid arteries. Panel A depicts a representative Western blot for ERK-2 and PKBα probed using phosphorylation-specific antibodies. Lysates from NIH3T3 cells treated with or without PDGF were used as positive and negative controls, respectively. This immunoblot is representative of similar experiments using a total of 8 animals. Panels B-C quantifies the immunoblot data.
(In western blotting, separated proteins are transferred to a membrane and probed.)

Data set [5] relates to restenosis / thrombus formation. As to the kind of experiment: Anticoagulation therapy (Lovenox) and thrombus formation with ceramide balloon angioplasty. It is filed as in vivo. The note with it: ceramide-treated balloon angioplasty. The text has this: To prevent thrombus formation, patients routinely receive anti-coagulants prior to percutaneous transluminal coronary angioplasty. Thus, the consequences of anticoagulation therapy on the effectiveness of ceramide therapy were investigated.

Data set [6] concerns rat glomerular mesangial cells. To be noted: cited from earlier work.
Another data set concerns PKBα. As to the kind of experiment: PKBα phosphorylation in excised carotid arteries after angioplasty (Western blot). Type of data set: in vivo. The note with it: ceramide-coated balloon angioplasty, rabbit carotid arteries. As to the method:
as §1, §2

Data set [7] has as its system A7r5 aortic smooth muscle cells. To be noted: cited from earlier work.
The nature of data set [8]: Ceramide transfer from balloon catheter to carotid artery ([3H]C6-ceramide tracer, TLC, in situ autoradiography). It is filed as in vivo, rabbit. As to the method: The inability of experimentally effective therapies to succeed in clinical trials is often the consequence of sub-optimal doses of therapeutics being delivered to the site of injury for the appropriate duration. Moreover, the efficacy of therapy may be a consequence of biomechanical force transferring ceramide from the inflated balloon to the site of vascular lesions. Therefore, experiments were conducted to quantify ceramide transfer between the balloon and the carotid artery; the pharmacokinetics of ceramide transfer and delivery from the balloon catheter to the damaged artery was assessed. Using [^3H]C6-ceramide as a tracer, it was calculated that 70±10 nmol of C6-ceramide was applied to the balloon as a gel from a solution of 5 μmol of C6-ceramide. […] This translates to roughly 58 nmol of C6-ceramide being transferred from the balloon catheter during the angioplasty procedure. To test whether inflation of the balloon within the carotid artery was essential for optimal transfer of the ceramide, the surgical procedure was performed using noninflated balloons. The recovered ceramide mass on the inserted but noninflated balloon was 14±3 nmol. Rabbit carotid arteries treated with radiolabeled lipid were homogenized, and lipid products were separated by thin-layer chromatography (TLC) (FIG. 3A). The mass of intact ceramide isolated 15 minutes after angioplasty was 2.7±0.4 nmol for inflated balloon treatments and 0.7±0.2 nmol for noninflated balloon treatments. […] As the transferred ceramide was initially delivered to 0.0365 cm^3 of carotid artery luminal volume, the effective concentration of ceramide at the site of balloon injury is estimated to be 1.5 mmol/L. Thus, an effective and reproducible dose of ceramide can be delivered to the damaged artery as a consequence of the balloon inflation.
In situ autoradiography was utilized to document arterial penetrance for [^3H]C6-ceramide transferred from the balloon catheter after angioplasty (FIGS. 3B through 3D). […] This increase in pixel intensity reflects an increase in intact ceramide, as at this time point 89±4% of the radiolabel comigrates with authentic C6-ceramide standards. Pixel intensity was more intense in inflated (panel C) versus noninflated (panel D) arteries. Expressed as pixel density per square millimeter for 10 randomly selected blocks with background values subtracted, medial staining was increased 4.7±0.2-fold for ceramide-coated inflated versus noninflated balloons. Again, this supports the conclusion that balloon inflation leads to maximal delivery and penetrance.
The degradation of the rapidly intercalated radiolabeled ceramide by TLC was also assessed. For the 15-minute postangioplasty time point, 89±4% of the TLC-separated lipid comigrated with authentic C6-ceramide standards. This corresponded to a recovered mass of 2.7±0.4 mnol of ceramide. At 60 minutes after angioplasty, 1.3±0.6 nmol of ceramide was recovered. Thus, 50% radiolabel can still be recovered as intact ceramide in 1 hour. This decrease in ceramide mass corresponded to an increase in TLC-separated gangliosides and cerebrosides but not sphingosines.

A further data set deals with neointimal hyperplasia. As to the kind of experiment: Angioplasty-induced injury, other cell-permeable ceramide derivatives. The note with it: in vivo. The text has this:
Other cell-permeable ceramide derivatives can also limit neointimal hyperplasia.

Where [9] appears, read: 15 minutes after angioplasty, inflated balloon.

“Also recorded” adds a separate entry of the source.

In the case of `CCCCCCCCCCCCCCC[C@@H](O)[C@H](CO)NC(=O)CCCCC` [dihydro-C6-ceramide, reference compound], the “percentage of PCNA positive cells” value in [1] was 1.9%±0.3%. Also, the results for the “effect on neointimal hyperplasia / restenosis after balloon injury” value in [2] and in [2] (listed as dihydro-CC6-ceramide) were “did not reduce restenosis” and “not”, respectively. The “effect upon restenotic lesions” value in [3] (equivalent dose) is reported as “had no effect”.

Regarding `C=C1[C@@H](O)[C@@H]2O[C@]3(CC[C@H](/C=C/[C@@H](C)[C@@H]4CC(C)=C[C@@]5(O[C@H](C[C@@](C)(O)C(=O)O)CC[C@H]5O)O4)O3)CC[C@H]2O[C@@H]1[C@@H](O)C[C@H](C)[C@H]1O[C@@]2(CCCCO2)CC[C@H]1C` [okadaic acid], the apoptosis in data set [4] (24 hours) is listed as 52%; in [4] (40 hours), 69%±2%.

On to `CCCCCCCCCCCCC/C=C/[C@@H](O)[C@H](CO)NC(=O)CCCCC` [C6-ceramide], for which the “phosphorylation state of ERK2” value in the data set with ERK2 was “reduced below basal activation levels; also recorded: diminished”. Besides, the thrombus formation entry in [5] is reported as “Neither ceramide- nor vehicle-treated balloon angioplasty induced thrombus formation”. Moreover, the “percentage of PCNA positive cells” value in [1] was 0.6%±0.2%. For the same compound, the “effect on tyrosine kinase receptor- and G-protein receptor-linked mitogenesis” value in data set [6] and in [7] was “inhibit” in each case. Further, the “effect on neointimal hyperplasia / restenosis after balloon injury” value in data set [2] was “significantly reduced the neointimal hyperplasia; also recorded: blocked neointimal hyperplasia”. Moreover, the “inhibition of balloon-induced neointimal formation (reduction of the neointimal/medial ratio)” value in data set [2] was 92%. Besides, in the data set with PKBα, the “phosphorylation state of PKBα” value was “reduced below basal activation levels; also recorded: diminished”. Also, the “reduction of restenosis after balloon angioplasty” value in data set [3] (three infusions of 10 μM for 1 minute each, BSA vehicle) is 39%. For the same compound, the “effective concentration of ceramide at the site of balloon injury” value in data set [8] (0.0365 cm^3 carotid artery luminal volume) is listed as about 1.5 mmol/L. The “recovered mass of ceramide” value in data set [8] (15-minute postangioplasty time point) came to 2.7±0.4 mnol; in data set [8] (60 minutes after angioplasty), 1.3 ± 0.6 nmol. The “radiolabel comigrating with authentic C6-ceramide standards (TLC)” value in [8] (15 minutes after angioplasty) worked out at 89±4%. The “mass of intact ceramide isolated from carotid artery” value was found to be 2.7 ± 0.4 nmol in data set [8] (setting [9]) and 0.7 ± 0.2 nmol in data set [8] (15 minutes after angioplasty, noninflated balloon). In data set [8] (after insertion and inflation), the “amount remaining on the balloon” value was 12 ± 2 nmol. Moreover, in data set [8] (from a solution of 5 μmol of C6-ceramide, [3H] tracer), the “amount applied to the balloon as a gel” value was found to be 70 ± 10 nmol. Besides, the “radiolabel recovered as intact ceramide” value in data set [8] (in 1 hour) is 50%. Also, the “amount transferred from the balloon catheter during angioplasty” value in [8] (inflated balloon) is “roughly 58 nmol”. The “recovered ceramide mass on the balloon” value in data set [8] (inserted but noninflated balloon) was determined as 14 ± 3 nmol.

In the case of [^3H]C6-ceramide [reference compound], the “radiolabel comigrating with authentic C6-ceramide standards (TLC)” value in data set [8] (15 minutes after angioplasty) was 89±4%. Besides, the “arterial penetrance (in situ autoradiography)” value in data set [8] (setting [9]) is recorded as “observed throughout the medial layers of the artery”. In addition, in data set [8] (autoradiography, 10 randomly selected blocks, background subtracted), the “increase in medial staining (pixel density per square millimeter), inflated versus noninflated balloons” value came out at 4.7±0.2 fold.

For `CCCCCCCCCCCCC/C=C/[C@@H](O)[C@H](CO)N(C)C` [dimethylsphingosine], the “effect on angioplasty-induced injury” value in the data set on neointimal hyperplasia is “effective in limiting angioplasty-induced injury”.

The values are drawn from patent US6682545B1, “System and device for preventing restenosis in body vessels” (The Penn State Research Foundation, priority 1999, dated 2004).
